Data as given in patent US7001906B2, “Pyrido-pyrido-pyrrolo pyrrolo-indole and pyrido-pyrrolo pyrrolo carbazole derivatives, method for the production thereof and pharmaceutical compositions containing said derivatives” (Les Laboratoires Servier, priority 2001, dated 2006).

Assays:
Format in all cases: cell-based
neuroblastoma SK-N-MC = test: In vitro cytotoxicity on human cell lines: neuroblastoma SK-N-MC; conditions: 96 h, incubation 4 days
Method: (§1) Murine leukaemia L1210 was used in vitro. The cells are cultured in RPMI 1640 complete culture medium containing 10% foetal calf serum, 2 mM glutamine, 50 units/ml of penicillin, 50 μg/ml of streptomycin and 10 mM Hepes, pH: 7.4. The cells are distributed on microplates and exposed to the cytotoxic compounds for 4 doubling periods, or 48 hours. The number of viable cells is then quantified by means of a colorimetric assay, the Microculture Tetrazolium Assay (J. Carmichael et al., Cancer Res., 47, 936–942, (1987)). The results are expressed as IC50, the concentration of cytotoxic agent which inhibits the proliferation of the treated cells by 50%.
(§2) The compounds of the invention were also tested on human cell lines according to the same experimental protocol as that described for murine leukaemia L1210, but with incubation times of 4 days instead of 2 days.

[1] = test system: epidermoid carcinoma A431; test: In vitro cytotoxicity on human cell lines: epidermoid carcinoma A431; conditions: A-431, 96 h, epidermoid carcinoma A431, incubation 4 days
Method: as §1, §2

[2] = test system: small cell lung carcinoma H 69; test: In vitro cytotoxicity on human cell lines: small cell lung carcinoma H 69; conditions: 96 h, small cell lung carcinoma H 69, incubation 4 days
Method: as §1, §2

Murine leukaemia L1210 = test: In vitro cytotoxicity, murine leukaemia L1210 (Microculture Tetrazolium Assay); conditions: Mus musculus; L1210, exposure 4 doubling periods, or 48 hours; read-out: IC50, the concentration of cytotoxic agent which inhibits the proliferation of the treated cells by 50%
Method: as §1

O=C1NC(=O)c2c1c1c3ccccc3[nH]c1c1c2c2cccnc2n1[C@@H]1O[C@H](CO)[C@@H](O)[C@H](O)[C@H]1O [Example 3, 13-(β-D-glucopyranosyl)-12,13-dihydro-5H-pyrido[3′,2′:4,5]pyrrolo-[2,3-a]pyrrolo[3,4-c]carbazole-5,7(6H)-dione]
IC50 (neuroblastoma SK-N-MC): < 1 µM | IC50 [1]: < 1 µM | IC50 [2]: < 1 µM

O=C1NC(=O)c2c1c1c3cc(Br)ccc3[nH]c1c1c2c2cccnc2n1[C@@H]1O[C@H](CO)[C@@H](O)[C@H](O)[C@H]1O [Example 4, 9-bromo-13-(β-D-glucopyranosyl)-12,13-dihydro-5H-pyrido-[3′,2′:4,5]pyrrolo[2,3-a]pyrrolo [3,4-c]carbazole-5,7(6H)-dione]
IC50 (Murine leukaemia L1210): < 0.1 µM | IC50 (neuroblastoma SK-N-MC): < 1 µM | IC50 [1]: < 1 µM | IC50 [2]: < 1 µM

O=C1NC(=O)c2c1c1c3cc([N+](=O)[O-])ccc3[nH]c1c1c2c2cccnc2n1[C@@H]1O[C@H](CO)[C@@H](O)[C@H](O)[C@H]1O [Example 5, 9-nitro-13-(β-D-glucopyranosyl)-12,13-dihydro-5H-pyrido-[3′,2′:4,5]pyrrolo[2,3-a]pyrrolo[3,4-c]carbazole-5,7(6H)-dione]
IC50 (Murine leukaemia L1210): < 0.1 µM | IC50 (neuroblastoma SK-N-MC): < 1 µM | IC50 [1]: < 1 µM | IC50 [2]: < 1 µM

O=C1NC(=O)c2c1c1c3cccnc3[nH]c1c1c2c2ccccc2n1[C@@H]1O[C@H](CO)[C@@H](O)[C@H](O)[C@H]1O [Example 9, 12-(β-D-glucopyranosyl)-12,13-dihydro-5H-pyrido[3′,2′:4,5]pyrrolo-[2,3-a]pyrrolo[3,4-c]carbazole-5,7(6H)-dione]
IC50 (Murine leukaemia L1210): < 0.1 µM

O=C1NC(=O)c2c1c1c3cccnc3[nH]c1c1c2c2cccnc2n1[C@@H]1O[C@H](CO)[C@@H](O)[C@H](O)[C@H]1O [Example 12, 12-(β-D-glucopyranosyl)-12,13-dihydro-5H-pyrido[2,3-b]-pyrido[3′,2′:4,5]pyrrolo[3,2-g]pyrrolo[3,4-e]indole-5,7(6H)-dione]
IC50 (Murine leukaemia L1210): < 0.1 µM

CN1C(=O)c2c(c3c4cccnc4n([C@@H]4O[C@H](CO)[C@@H](O)[C@H](O)[C@H]4O)c3c3[nH]c4ccccc4c23)C1=O [Example 17, 13-(β-D-glucopyranosyl)-6-methyl-12,13-dihydro-5H-pyrido-[3′,2′:4,5]pyrrolo [2,3-a]pyrrolo [3,4-c]carbazole-5,7(6H)-dione]
IC50 (neuroblastoma SK-N-MC): < 1 µM | IC50 [1]: < 1 µM | IC50 [2]: < 1 µM

CN1C(=O)c2c(c3c4cccnc4n([C@@H]4O[C@H](CO)[C@@H](O)[C@H](O)[C@H]4O)c3c3[nH]c4ccc(Br)cc4c23)C1=O [Example 19, 13-(β-D-glucopyranosyl)-9-bromo-6-methyl-12,13-dihydro-5H-pyrido[3′,2′:4,5]pyrrolo[2,3-a]pyrrolo[3,4-c]carbazole-5,7(6H)-dione]
IC50 (neuroblastoma SK-N-MC): < 1 µM | IC50 [1]: < 1 µM | IC50 [2]: < 1 µM
